Results on one compound are retold here after patent US20220105041A1, “METHOD FOR MANUFACTURING A SOLID ADMINISTRATION FORM AND SOLID ADMINISTRATION” (priority 2019, published 2022).

This data set in a line: Dissolution (release of caffeine) of 3D printed tablets, paddle method, Sotax AT 7smart. The data set is classed as physicochemical. Conditions: 900 ml 0.1 n HCl, 37° C., paddle 100 rpm, UV 272 nm. As to the method:
Release of caffeine as active ingredient is determined using the Sotax Freisetzungsapparatur Sotax AT 7smart (Sotax AG, Lörrach, Germany) […]
Each sample is collected in a test tube with the automatic sampler.
Device: Release apparatus: Sotax AT 7smart (Sotax AG, Lörrach, Germany), Photometer Agilent 8453 (Agilent Technologies, Waldbronn, Germany)
Temperature of medium: 37° C.
Cuvette layer thickness: 10 mm
FIG. 31 illustrates results achieved by dissolution measurement of 3D printed caffeine containing tablets in 900 ml of 0.1 n HCl. […] To dissolute and release the full API amount of a filled tablet (100%) needs 360 minutes for entire release of the comprising API, while a 3D printed tablet, 50% filled, already releases 100% of the comprising API amount after app 30 minutes in the dissolution equipment. The time measured is […] dissolving pure crystalline caffeine particles tested in comparison by 100% after app 5 minutes.

In the case of `Cn1c(=O)c2c(ncn2C)n(C)c1=O` [pure crystalline caffeine, Caffeine], the “time to release 100% (full amount) of API caffeine” value is roughly 5 min.
